Consider three substances from patent US20180221433A1, “ANGIOTENSINS IN MUSCULAR DYSTROPHY” (University of Iowa Research Foundation, priority 2013, published 2018).

Positions of bridges follow the written chain, without caps; N, C: chain ends. No end group written: not given here.

Common to all, as to type: in vivo, mouse
Experiment [1] has as its system Sgcd −/− mice. The experiment can be described thus: Radio-telemetry of blood pressure, heart rate and locomotor activity in Sgcd −/− mice. An excerpt: In this Example, Sgcd −/− mice, a known model of limb-girdle muscular dystrophy, were used to assess the effects of angiotensin (1-7) peptides on skeletal muscle fibrosis, blood pressure, heart rate, cardiac activity, baroreflex sensitivity, oxidative stress, AT1R receptor expression, and resting cardiac and vagal sympathetic tone. Sgcd −/− mice are missing a key component of the sarcoglycan complex, specifically, they are missing a link between the F-actin cytoskeleton and the extracellular matrix. This defect causes muscle wasting and weakness due to a reduction in muscle fiber integrity and dysregulation in cell signaling in muscle cells. It has been previously shown that this defect results in a reduction of locomotor activity and autonomic dysfunction at a young age. The autonomic dysfunction is thought to lead to cardiac dysfunction later in life.
(§1) To examine the effects of angiotensin (1-7) peptides on disruption of normal motor activity in Sgcd −/− mice, conscious, young (10-15 wks) Sgcd−/− and control C57BL6 mice were analyzed by radio-telemetry. Radio-telemeters were implanted into the aorta via the left carotid artery under ketamine-xylazine anesthesia when mice were 10 weeks of age. Following recovery, blood pressure, heart rate and locomotor activity were measured 24 hours/day. Blood pressure measurements were sampled at 2000 Hz for 1 hour periods to enable beat-to-beat measurements of systolic arterial pressure and pulse interval (PI). Baroreflex control of heart rate was assessed from spontaneous fluctuations in systolic blood pressure and pulse interval using known sequence techniques.
Osmotic minipumps (Alzet) were implanted with either Ang (1-7) (also referred to as “TXA127”) or vehicle in mice pups at 3 weeks of age, under ketamine-xylazine anesthesia.
(§2) Data were collected over 2-3 days, and 24 hour averages were calculated. Separate groups of control and Sgcd−/− mice were infused with Ang-(1-7) (300 ng/kg/min) for 8 weeks beginning at 3 weeks of age. Measurements were obtained in these mice using the same protocols as described above.
(§3) Data in this example are presented as ±SE. Results were analyzed by ANOVA, and paired and unpaired t-tests as appropriate, significance was determined at p<0.05.

The subject of experiment [2] is Sgcd −/− mice. The experiment can be described thus: Baroreflex sensitivity and cardiac/vasomotor autonomic tone in Sgcd −/− mice. The note with it: Ang-(1-7) 300 ng/kg/min for 8 weeks. As to the method:
as §1
Baroreflex sensitivity was calculated from spontaneous fluctuations in systolic blood pressure and pulse interval using the sequence technique. Specifically, baroreflex sensitivity was calculated as the average slope of sequences of 4 or more consecutive blood pressure pulses where the change in blood pressure and pulse interval are positively correlated (r^2>0.85).
Cardiac sympathetic tone and parasympathetic tone were calculated from heart rate responses to the β-adrenergic receptor blocker propranolol and the muscarinic cholinergic receptor blocker methylatropine, respectively. Specifically, resting cardiac sympathetic and parasympathetic (vagal) tone was estimated from heart rate responses to propranolol (1 μg/g, IP) and methylatropine (1 μg/g, IP), respectively. Vasomotor sympathetic tone was calculated from the decrease in mean arterial blood pressure in response to injection of the ganglionic blocker chlorisondamine (12 μg/g, IP).
as §2, §3

Experiment [3] concerns Sgcd −/− mice. As to the kind of experiment: Masson Trichrome stain of skeletal muscle (quadriceps) for fibrosis, Example 2. As to the method:
as §2
(§4) To assess skeletal muscle phenotypes, paraffin sections of skeletal muscle (quadriceps) were stained with Masson Trichrome to assess histopathology and fibrosis. Frozen sections of skeletal muscle were incubated with polyclonal anti-δ and anti-β sarcoglycan primary antibody, a nuclear stain, and Alexa Fluor 488. AT1R (Ang type 1 receptor) and Mas (Ang(1-7) receptor) were detected with rabbit anti-AT1R, and anti-Mas nuclear stains, and secondary antibody goat anti-rabbit IgG. Oxidative stress (O2.^−) was measured by dihydrocthidium (DHE) fluorescence.
as §3

Experiment [4] has as its system angiotensin type 1 receptors (AT1R). As to the kind of experiment: AT1R expression in skeletal muscle sections (Alexa Fluor 488 staining). To be noted: Sgcd −/− mice, Ang-(1-7) 300 ng/kg/min for 8 weeks; vs untreated Sgcd −/−; FIG. 6. As to the method:
as §2, §4

Experiment [5] has as its system Sgcd −/− mice. The experiment can be described thus: Oxidative stress (superoxide) by dihydroethidium (DHE) fluorescence in skeletal muscle, Example 2. The note with it: Ang-(1-7) 300 ng/kg/min for 8 weeks, vs untreated Sgcd −/−, FIG. 7. As to the method:
as §2, §4, §3

Experiment [6] has as its system Sgcd −/− mice. As to the kind of experiment: Voluntary running-wheel exercise in Sgcd −/− mice, Example 4. To be noted: for amount of voluntary exercise performed (average running-wheel revolutions, weeks 6, 7 and 8) / amount of exercise performed (accumulated totals over the three week test period): osmotic minipump 8 weeks, vs saline; for amount of voluntary exercise performed (average running-wheel revolutions, weeks 6, 7 and 8): TXA127 500, Pancyte 50, TXA301 50 μg/kg/day, FIG. 8; for amount of exercise performed (accumulated totals over the three week test period): TXA127 500, TXA301 50 μg/kg/day, FIG. 9. From the text:
In this Example, Sarcoglycan delta deficient mice (Sgcd−/−), an established mouse model of Limb Girdle Muscular Dystrophy-2F (LGMD-2F), was used to examine the effects of angiotensin (1-7) peptides on the progression of functional impairment and fibrosis in sufferers of the disease.
(§5) A total of 32 Sgcd −/− mice were randomly assigned to one of four treatment groups (n=8 in each): a saline group (vehicle) a TXA127 group, a Pancyte group, and a TXA301 group. The doses of Angiotensin (1-7) peptides administered was 500 μg/kg/day for TXA127, 50 μg/kg/day for Pancyte, and 50 μg/kg/day for TXA301. Osmotic minipumps containing the treatments were implanted in mice at 28-35 weeks of age, and the angiotensin (1-7) peptides were infused for 8 weeks. For the last three weeks of treatment, the mice were put in cages with running wheels attached to calculate the amount of voluntary exercise performed by each animal. Total number of wheel revolutions (distance ran) were collected daily. At the end of 8 weeks of treatment, quadriceps muscles were harvested from the mice for histopathological and oxidative stress analyses.

The test system of experiment [7] is Sgcd −/− mice. The experiment can be described thus: H&E and Masson's Trichrome stain of quadriceps muscle for fibrosis, Example 4. The note with it: osmotic minipump 8 weeks, TXA127 500, Pancyte 50, TXA301 50 μg/kg/day, vs saline, FIG. 10. As to the method: as §5
An H&E stain was used to examine the dystrophic morphology of the quadriceps muscles of the mice.

The test system of experiment [8] is Sgcd −/− mice. The experiment can be described thus: Oxidative stress by DHE stain of quadriceps muscle, Example 4. To be noted: TXA127 500 μg/kg/day for 8 weeks, vs saline, FIG. 11. As to the method:
as §5
Dihydroethidium (DHE) was used to examine the degree of oxidative stress in treated Sgcd−/− mice. […] For quantification of degree of fibrosis, an average of six-sections of skeletal quadriceps muscle were obtained from each mouse. An intensity of fluorescence for each mouse was quantified using NIH ImageJ software and normalized to a percentage of the average fluorescence intensity measured in saline-treated Sgcd−/− mice.

Turning to “Asp^1-Arg^2-Val^3-Tyr^4-Ile^5-His^6-Pro^7 [Ang (1-7)]”, in the experiment with Sgcd −/− mice [1] (Sgcd −/− mice, Ang-(1-7) 300 ng/kg/min by osmotic minipump for 8 weeks from 3 weeks of age, vs untreated Sgcd −/−, FIG. 2A), the “mean arterial blood pressure” value is “not significantly affected”. Also, the “24 hour average heart rate” value in the experiment with Sgcd −/− mice [1] (Sgcd −/− mice, Ang-(1-7) 300 ng/kg/min for 8 weeks, vs untreated Sgcd −/− controls, FIG. 2B) is reported as “mildly decrease”. Also, the “24 hour average locomotor activity” value with Sgcd −/− mice [1] (Sgcd −/− mice, Ang-(1-7) 300 ng/kg/min for 8 weeks, vs untreated Sgcd −/−, FIG. 3) is “reduction in locomotor activity was drastically reduced”. Further, the “levels of locomotion compared with Control C57BL6 mice” value in the experiment on Sgcd −/− mice [1] (treated Sgcd −/− mice vs Control C57BL6 mice, FIG. 3) is given as “did not vary significantly”. Further, in the experiment on Sgcd −/− mice [2] (FIG. 4A), the “baroreflex sensitivity (decrease in Sgcd −/− mice)” value is given as “essentially abrogated”. In the experiment with Sgcd −/− mice [2] (blood pressure response to chlorisondamine, FIG. 4D), the “vasomotor sympathetic tone (increase in Sgcd −/− mice)” value is “essentially abrogated”. Besides, in the experiment on Sgcd −/− mice [2] (heart rate response to methylatropine, FIG. 4B), the “cardiac vagal tone (decrease in Sgcd −/− mice)” value is reported as “essentially abrogated”. Besides, the “cardiac sympathetic tone (increase in Sgcd −/− mice)” value in the experiment on Sgcd −/− mice [2] (heart rate response to propranolol, FIG. 4C) is “essentially abrogated”. The “fibrosis of skeletal muscle (quadriceps)” value in the experiment with Sgcd −/− mice [3] (Sgcd −/− mice, Ang-(1-7) 300 ng/kg/min for 8 weeks, vs untreated Sgcd −/−, FIG. 5) is “markedly reduced”. Moreover, the “levels of fibrosis compared with control C57BL6 mice” value in the experiment with Sgcd −/− mice [3] (treated Sgcd −/− mice vs control C57BL6 mice, FIG. 5B) is reported as “comparable to control C57BL6 mice”. Further, the AT1R receptor expression result in experiment [4] is given as “essentially abrogates the increase in AT1R”. Also, in the experiment on Sgcd −/− mice [5], the “levels of superoxide (DHE fluorescence)” value is given as “strongly attenuated”. In the experiment on Sgcd −/− mice [6] (TXA127 500 μg/kg/day, accumulated totals weeks 6-8, FIG. 9), the “fold improvement in exercise compared to saline control animals” value is given as “more than six fold improvement”. For the same substance, in the experiment with Sgcd −/− mice [6], the “amount of voluntary exercise performed (average running-wheel revolutions, weeks 6, 7 and 8)” value is on record as “significant improvement”; the “amount of exercise performed (accumulated totals over the three week test period)” value was “significant increases”. The “fibrosis in skeletal muscle (quadriceps)” value with Sgcd −/− mice [7] is listed as “significantly reduced fibrosis”. Also, in the experiment on Sgcd −/− mice [8], the “oxidative stress (DHE fluorescence intensity)” value is reported as “significantly attenuated”.

With “Asp^1-Arg^2-Val^3-Ser^4-Ile^5-His^6-Cys^7 [PanCyte] (DRVSIHC; bridge 4-7; also: cross link type between Ser4 and Cys7 not given here) [cyclic angiotensin (1-7) peptide analog]”, the “fibrosis in skeletal muscle (quadriceps)” value in the experiment with Sgcd −/− mice [7] is on record as “no reduction in fibrosis was observed”.

As for “Asp^1-Arg^2-Val^3-Ser^4-Ile^5-His^6-Cys^7 [TXA301] (DRVSIHC; bridge 4-7; also: cross link type between Ser4 and Cys7 not given here) [linear angiotensin (1-7) peptide]”, in the experiment on Sgcd −/− mice [6], the “amount of voluntary exercise performed (average running-wheel revolutions, weeks 6, 7 and 8)” value is given as “significant improvement”; the “amount of exercise performed (accumulated totals over the three week test period)” value is recorded as “significant increases”. Further, the “fibrosis in skeletal muscle (quadriceps)” value with Sgcd −/− mice [7] was “some improvement”.
